# Literature values as cited in patent US20220117942A1, “COMBINATION THERAPY FOR THE TREATMENT OF PROSTATE CANCER” (Zenith Epigenetics Ltd., priority 2018, published 2022).
# System: 2nd line mCRPC patients
# Details: enzalutamide alone, comparison value
smiles,measurement,value
CNC(=O)c1ccc(N2C(=S)N(c3ccc(C#N)c(C(F)(F)F)c3)C(=O)C2(C)C)cc1F [enzalutamide],expected rPFS,24-28 weeks
